{"source": "patent US6693107B1", "about": "“Pharmaceutical composition useful for the treatment of tinnitus and hearing loss” (priority 1999, dated 2004)", "key": {"tinnitus": {"test_system": "tinnitus", "assay": "Case reports: tinnitus in patients treated with sildenafil citrate", "type": "in vivo, human", "text": "A person suffering for several years from severe tinnitus and hearing loss in their right ear had repeatedly sought medical advice and tried many alleged therapies for their tinnitus, none of which was effective. […] Other than that they are in good health and receives no medications. Recently they were prescribed sildenafil citrate for improving their sexual performance. […] A person known to have bilateral tinnitus and hearing loss for more than 20 years. Other than hypertension, for which they are treated, they are in good health. They were prescribed sildenafil citrate, 25 mg daily, for the tinnitus."}, "hearing loss": {"test_system": "hearing loss", "assay": "Case report: hearing loss / audiogram in patient treated with sildenafil citrate", "type": "in vivo, human", "text": "A person suffering for several years from severe tinnitus and hearing loss in their right ear had repeatedly sought medical advice and tried many alleged therapies for their tinnitus, none of which was effective. […] Other than that they are in good health and receives no medications. Recently they were prescribed sildenafil citrate for improving their sexual performance. […] For instance, at frequencies of 500-1000 Hz, hearing in their right ear improved from 50-55 dB to 30 dB."}, "[1]": {"conditions": "patients suffering from tinnitus"}}, "note": "Where a name gives a salt, the structure may show the parent alone.", "data": [{"compound": "CCCc1nn(C)c2c(=O)[nH]c(-c3cc(S(=O)(=O)N4CCN(C)CC4)ccc3OCC)nc12", "note": "[sildenafil citrate, 1-[[3-(6,7-dihydro-1-methyl-7-oxo-3-propyl-1H-pyrazolo [4,3-d]pyrimidin-5-yl)-4-ethoxyphenyl]sulfonyl]4-methylpiperazine citrate]", "values": [{"measurement": "effect on tinnitus", "setting": "tinnitus; Example 1: person, severe tinnitus in right ear, first course of sildenafil citrate", "value": "amelioration of the tinnitus, which eventually nearly disappeared"}, {"measurement": "tinnitus status on continued treatment", "setting": "tinnitus; Example 1: person, continues on sildenafil citrate", "value": "practically tinnitus-free"}, {"measurement": "return of the tinnitus after cessation of the medication", "setting": "tinnitus; Example 1: person, intentional stop of the medication", "value": "2-3 weeks"}, {"measurement": "severity of tinnitus on rechallenge", "setting": "tinnitus; Example 1: person, rechallenge 25 mg twice weekly", "value": "reduced the severity of tinnitus within a week and proceeded to almost complete disappearance of the symptom"}, {"measurement": "effect on tinnitus", "setting": "tinnitus; Example 2: person, bilateral tinnitus, 25 mg daily, starting after the 5th daily dose, persisted as long as drug taken", "value": "marked reduction in their tinnitus"}, {"measurement": "audiogram (overall)", "setting": "hearing loss; Example 1: after several months treatment", "value": "marked improvement"}, {"measurement": "hearing in right ear after treatment (audiogram)", "setting": "hearing loss; Example 1: frequencies of 500-1000 Hz, after several months treatment, improved from 50-55 dB before treatment", "value": 30, "unit": "dB"}, {"measurement": "hearing (patient report)", "setting": "hearing loss; Example 1: person, hearing loss in right ear, on continued treatment", "value": "significant improvement in their hearing"}]}, {"compound": "CCCc1nn(C)c2c(=O)[nH]c(-c3cc(S(=O)(=O)N4CCN(C)CC4)ccc3OCC)nc12", "note": "[sildenafil]", "values": [{"measurement": "effect on tinnitus (general statement)", "setting": "tinnitus; [1]", "value": "effective in reducing tinnitus"}, {"measurement": "effect on hearing loss (general statement)", "setting": "hearing loss; [1]", "value": "ameliorating hearing loss"}]}]}
